Laboratory results published in patent US20260139254A1, “INTERFERING RNA FOR INHIBITING TOP1 GENE EXPRESSION AND USE THEREOF” (JENKEM TECHNOLOGY CO., LTD. (BEIJING), priority 2022, published 2026).

Key:
TOP1 mRNA [1] = test: Dose-dependence of siTOP1-1604 on TOP1 mRNA in HCT116 cells (qPCR); assay type: cell-based, human; settings: for Relative expression level of TOP1, mean value: 24 h, siNC = 100.00
Protocol: (§1) A transfection system was prepared as follows on the day of transfection: siTOP1-1604 was diluted with an appropriate amount of Opti-MEM culture medium; Lipofectamine™ RNAiMAX (Lipo) transfection reagent was diluted with another appropriate amount of Opti-MEM culture medium and left to stand at room temperature for 5 min; and the two dilutions were uniformly mixed, left to stand at room temperature for 5 min, and then added to 24-well cell culture plates at 50 μL/well. PC-3 human prostate cancer cells were added to one of the 24-well cell culture plates at 4×10^5 cells/well, the culture medium being 450 μL of F12K containing 10% FBS; HCT116 human colon cancer cells were added to the other of the 24-well cell culture plates at 3.5×10^5 cells/well, the culture medium being 450 μL of IMDM containing 10% FBS. The cells were uniformly mixed with the siRNA. The final transfection volume was 500 μL, and the working concentrations of the siRNA were 10, 1.67, 0.27, 0.046, 0.0077, 0.0013, and 0.00021 nM. The control groups were Blank (Opti-MEM at the equal volume), Lipofectamine™ RNAiMAX (Lipo) transfection reagent, as well as 10 nM of siNC.
(§2) After 24 h of transfection, the cells were collected. The total cellular RNA was extracted according to the method in Example 2, and the level of TOP1 mRNA was detected. […] Nonlinear fitting was performed on the qPCR results using Graphpad software and IC50 of siTOP1 was calculated.

TOP1 mRNA [2] = test: Dose-dependence of siTOP1-1604 on TOP1 mRNA in PC-3 cells (qPCR); assay type: cell-based, human; settings: for Relative expression level of TOP1, mean value: 24 h, siNC = 100.00
Protocol: as §1, §2

## siTOP1-1604: siRNA targeting TOP1; target SEQ ID NO: 9, sense strand SEQ ID NO: 24, antisense strand SEQ ID NO: 39 (sense GUGUGGACAAGAUCCGGAAUU; antisense UUCCGGAUCUUGUCCACACUU; described as unmodified parent siRNA, further chemistry not given here)
TOP1 mRNA [1]; HCT116, 0.00021 nM
  Relative expression level of TOP1, mean value: 73.06
TOP1 mRNA [1]; HCT116, 0.0013 nM
  Relative expression level of TOP1, mean value: 74.72
TOP1 mRNA [1]; HCT116, 0.0077 nM
  Relative expression level of TOP1, mean value: 54.01
TOP1 mRNA [1]; HCT116, 0.046 nM
  Relative expression level of TOP1, mean value: 17.23
TOP1 mRNA [1]; HCT116, 0.27 nM
  Relative expression level of TOP1, mean value: 7.57
TOP1 mRNA [1]; HCT116, 1.67 nM
  Relative expression level of TOP1, mean value: 7.91
TOP1 mRNA [1]; HCT116, 10 nM
  Relative expression level of TOP1, mean value: 3.98
TOP1 mRNA [1]; HCT116, 24 h, relative to siNC, nonlinear fit of qPCR results
  IC50: 0.006 nM
TOP1 mRNA [2]; PC-3, 0.00021 nM
  Relative expression level of TOP1, mean value: 125.48
TOP1 mRNA [2]; PC-3, 0.0013 nM
  Relative expression level of TOP1, mean value: 96.21
TOP1 mRNA [2]; PC-3, 0.0077 nM
  Relative expression level of TOP1, mean value: 122.71
TOP1 mRNA [2]; PC-3, 0.046 nM
  Relative expression level of TOP1, mean value: 47.64
TOP1 mRNA [2]; PC-3, 0.27 nM
  Relative expression level of TOP1, mean value: 24.94
TOP1 mRNA [2]; PC-3, 1.67 nM
  Relative expression level of TOP1, mean value: 21.05
TOP1 mRNA [2]; PC-3, 10 nM
  Relative expression level of TOP1, mean value: 19.66
TOP1 mRNA [2]; PC-3, 24 h, relative to siNC, nonlinear fit of qPCR results
  IC50: 0.075 nM
